Assay results from PubChem BioAssay (NCI).
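Assay format: 96-well plates, 48-hour exposure. At the GI50, growth is halved. TGI: total growth inhibition.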

Assays:
Experiment in all cases: NCI-60 cell line screen, 48 h
786-0 renal = system: 786-0 renal
A498 renal = system: A498 renal
A549 NSCLC = system: A549 NSCLC
ACHN renal = system: ACHN renal
BT-549 breast = system: BT-549 breast
CAKI-1 renal = system: CAKI-1 renal
CCRF-CEM leukemia = system: CCRF-CEM leukemia
COLO 205 colon = system: COLO 205 colon
DU-145 prostate = system: DU-145 prostate
HCC-2998 colon = system: HCC-2998 colon
HCT-116 colon = system: HCT-116 colon
HCT-15 colon = system: HCT-15 colon
HL-60(TB) leukemia = system: HL-60(TB) leukemia
HOP-62 NSCLC = system: HOP-62 NSCLC
HOP-92 NSCLC = system: HOP-92 NSCLC
HS 578T breast = system: HS 578T breast
HT29 colon = system: HT29 colon
IGROV1 ovarian = system: IGROV1 ovarian
K-562 leukemia = system: K-562 leukemia
KM12 colon = system: KM12 colon
LOX IMVI melanoma = system: LOX IMVI melanoma
M14 melanoma = system: M14 melanoma
MALME-3M melanoma = system: MALME-3M melanoma
MCF7 breast = system: MCF7 breast
MDA-MB-231 breast = system: MDA-MB-231 breast
MDA-MB-435 = system: MDA-MB-435
MOLT-4 leukemia = system: MOLT-4 leukemia
NCI-H226 lung = system: NCI-H226 lung
NCI-H23 lung = system: NCI-H23 lung
NCI-H460 lung = system: NCI-H460 lung
NCI-H522 lung = system: NCI-H522 lung
NCI/ADR-RES ovarian = system: NCI/ADR-RES ovarian
OVCAR-3 ovarian = system: OVCAR-3 ovarian
OVCAR-4 ovarian = system: OVCAR-4 ovarian
OVCAR-5 ovarian = system: OVCAR-5 ovarian
OVCAR-8 ovarian = system: OVCAR-8 ovarian
PC-3 prostate = system: PC-3 prostate
RPMI-8226 leukemia = system: RPMI-8226 leukemia
RXF 393 renal = system: RXF 393 renal
SF-268 CNS = system: SF-268 CNS
SF-295 CNS = system: SF-295 CNS
SF-539 CNS = system: SF-539 CNS
SK-MEL-2 melanoma = system: SK-MEL-2 melanoma
SK-MEL-28 melanoma = system: SK-MEL-28 melanoma
SK-MEL-5 melanoma = system: SK-MEL-5 melanoma
SK-OV-3 ovarian = system: SK-OV-3 ovarian
SN12C renal = system: SN12C renal
SNB-19 CNS = system: SNB-19 CNS
SR leukemia = system: SR leukemia
SW-620 colon = system: SW-620 colon
T-47D breast = system: T-47D breast
TK-10 renal = system: TK-10 renal
U251 CNS = system: U251 CNS
UACC-257 melanoma = system: UACC-257 melanoma
UACC-62 melanoma = system: UACC-62 melanoma
UO-31 renal = system: UO-31 renal
SNB-75 CNS = system: SNB-75 CNS

## CCc1ccc(/C(C#N)=C/C=C/c2ccccc2)cc1
786-0 renal
  GI50: 11.1 µM
  TGI: > 100 µM
A498 renal
  GI50: 2.19 µM
  TGI: 39.3 µM
A549 NSCLC
  GI50: 2.62 µM
  TGI: > 100 µM
ACHN renal
  GI50: 8.41 µM
  TGI: > 100 µM
BT-549 breast
  GI50: 7.86 µM
  TGI: > 59.8 µM
CAKI-1 renal
  GI50: 10.1 µM
  TGI: > 100 µM
CCRF-CEM leukemia
  GI50: 3.11 µM
  TGI: > 100 µM
COLO 205 colon
  GI50: 1.83 µM
  TGI: 5.91 µM
DU-145 prostate
  GI50: 4.22 µM
  TGI: > 48.4 µM
HCC-2998 colon
  GI50: 6.65 µM
  TGI: 68.3 µM
HCT-116 colon
  GI50: 1.93 µM
  TGI: > 100 µM
HCT-15 colon
  GI50: 0.897 µM
  TGI: > 83.9 µM
HL-60(TB) leukemia
  GI50: 2.54 µM
  TGI: > 62.9 µM
HOP-62 NSCLC
  GI50: 2.83 µM
  TGI: > 100 µM
HOP-92 NSCLC
  GI50: 2.28 µM
  TGI: 78.8 µM
HS 578T breast
  GI50: 5.25 µM
  TGI: > 100 µM
HT29 colon
  GI50: 1.38 µM
  TGI: 9.41 µM
IGROV1 ovarian
  GI50: 7.55 µM
  TGI: > 100 µM
K-562 leukemia
  GI50: 0.882 µM
  TGI: > 100 µM
KM12 colon
  GI50: 1.61 µM
  TGI: > 100 µM
LOX IMVI melanoma
  GI50: 10.5 µM
  TGI: > 100 µM
M14 melanoma
  GI50: 2.24 µM
  TGI: > 100 µM
MALME-3M melanoma
  GI50: 6.05 µM
  TGI: > 100 µM
MCF7 breast
  GI50: 1.14 µM
  TGI: > 100 µM
MDA-MB-231 breast
  GI50: 5.84 µM
  TGI: > 76.7 µM
MDA-MB-435
  GI50: 0.299 µM
  TGI: 1.16 µM
MOLT-4 leukemia
  GI50: 6.87 µM
  TGI: > 83.9 µM
NCI-H226 lung
  GI50: 17.2 µM
  TGI: > 100 µM
NCI-H23 lung
  GI50: 6.24 µM
  TGI: > 100 µM
NCI-H460 lung
  GI50: 3.35 µM
  TGI: > 42.7 µM
NCI-H522 lung
  GI50: 2.04 µM
  TGI: 14.7 µM
NCI/ADR-RES ovarian
  GI50: 2.21 µM
  TGI: > 100 µM
OVCAR-3 ovarian
  GI50: 2.46 µM
  TGI: 13.6 µM
OVCAR-4 ovarian
  GI50: 18.4 µM
  TGI: > 100 µM
OVCAR-5 ovarian
  GI50: 7.06 µM
  TGI: > 100 µM
OVCAR-8 ovarian
  GI50: 5 µM
  TGI: > 100 µM
PC-3 prostate
  GI50: 3.15 µM
  TGI: > 100 µM
RPMI-8226 leukemia
  GI50: 3.41 µM
  TGI: > 69 µM
RXF 393 renal
  GI50: 1.29 µM
  TGI: 4.09 µM
SF-268 CNS
  GI50: 19.3 µM
  TGI: > 100 µM
SF-295 CNS
  GI50: 2.51 µM
  TGI: 10.5 µM
SF-539 CNS
  GI50: 1.52 µM
  TGI: 4.69 µM
SK-MEL-2 melanoma
  GI50: 4.92 µM
  TGI: > 100 µM
SK-MEL-28 melanoma
  GI50: 7.12 µM
  TGI: > 100 µM
SK-MEL-5 melanoma
  GI50: 1.09 µM
  TGI: 26.2 µM
SK-OV-3 ovarian
  GI50: 3.08 µM
  TGI: > 29.3 µM
SN12C renal
  GI50: 10.6 µM
  TGI: > 100 µM
SNB-19 CNS
  GI50: 6.88 µM
  TGI: > 100 µM
SR leukemia
  GI50: 0.644 µM
  TGI: > 61.4 µM
SW-620 colon
  GI50: 1.22 µM
  TGI: > 100 µM
T-47D breast
  GI50: 2.4 µM
  TGI: > 100 µM
TK-10 renal
  GI50: 5.79 µM
  TGI: > 100 µM
U251 CNS
  GI50: 3.16 µM
  TGI: > 100 µM
UACC-257 melanoma
  GI50: > 83.5 µM
  TGI: > 100 µM
UACC-62 melanoma
  GI50: 3.48 µM
  TGI: > 100 µM
UO-31 renal
  GI50: 19.2 µM
  TGI: > 100 µM

## O=Cc1ncc(-c2ccc(C(F)(F)F)cc2)c(NC2CCCCCC2)n1
786-0 renal
  GI50: > 10 µM
  TGI: > 10 µM
A498 renal
  GI50: > 10 µM
  TGI: > 10 µM
A549 NSCLC
  GI50: > 10 µM
  TGI: > 10 µM
ACHN renal
  GI50: > 10 µM
  TGI: > 10 µM
BT-549 breast
  GI50: > 10 µM
  TGI: > 10 µM
CAKI-1 renal
  GI50: > 10 µM
  TGI: > 10 µM
CCRF-CEM leukemia
  GI50: > 10 µM
  TGI: > 10 µM
COLO 205 colon
  GI50: > 10 µM
  TGI: > 10 µM
DU-145 prostate
  GI50: > 10 µM
  TGI: > 10 µM
HCC-2998 colon
  GI50: > 10 µM
  TGI: > 10 µM
HCT-116 colon
  GI50: > 10 µM
  TGI: > 10 µM
HCT-15 colon
  GI50: > 10 µM
  TGI: > 10 µM
HL-60(TB) leukemia
  GI50: > 10 µM
  TGI: > 10 µM
HOP-62 NSCLC
  GI50: > 10 µM
  TGI: > 10 µM
HOP-92 NSCLC
  GI50: > 10 µM
  TGI: > 10 µM
HS 578T breast
  GI50: > 10 µM
  TGI: > 10 µM
HT29 colon
  GI50: > 10 µM
  TGI: > 10 µM
IGROV1 ovarian
  GI50: > 10 µM
  TGI: > 10 µM
K-562 leukemia
  GI50: > 10 µM
  TGI: > 10 µM
KM12 colon
  GI50: > 10 µM
  TGI: > 10 µM
LOX IMVI melanoma
  GI50: > 10 µM
  TGI: > 10 µM
M14 melanoma
  GI50: > 10 µM
  TGI: > 10 µM
MALME-3M melanoma
  GI50: > 10 µM
  TGI: > 10 µM
MCF7 breast
  GI50: > 10 µM
  TGI: > 10 µM
MDA-MB-231 breast
  GI50: > 10 µM
  TGI: > 10 µM
MDA-MB-435
  GI50: > 10 µM
  TGI: > 10 µM
MOLT-4 leukemia
  GI50: > 10 µM
  TGI: > 10 µM
NCI-H226 lung
  GI50: > 10 µM
  TGI: > 10 µM
NCI-H23 lung
  GI50: > 10 µM
  TGI: > 10 µM
NCI-H460 lung
  GI50: > 10 µM
  TGI: > 10 µM
NCI-H522 lung
  GI50: > 10 µM
  TGI: > 10 µM
NCI/ADR-RES ovarian
  GI50: > 10 µM
  TGI: > 10 µM
OVCAR-3 ovarian
  GI50: > 10 µM
  TGI: > 10 µM
OVCAR-4 ovarian
  GI50: > 10 µM
  TGI: > 10 µM
OVCAR-5 ovarian
  GI50: > 10 µM
  TGI: > 10 µM
OVCAR-8 ovarian
  GI50: > 10 µM
  TGI: > 10 µM
PC-3 prostate
  GI50: > 10 µM
  TGI: > 10 µM
RPMI-8226 leukemia
  GI50: > 10 µM
  TGI: > 10 µM
RXF 393 renal
  GI50: > 10 µM
  TGI: > 10 µM
SF-268 CNS
  GI50: > 10 µM
  TGI: > 10 µM
SF-295 CNS
  GI50: > 10 µM
  TGI: > 10 µM
SF-539 CNS
  GI50: > 10 µM
  TGI: > 10 µM
SK-MEL-2 melanoma
  GI50: > 10 µM
  TGI: > 10 µM
SK-MEL-28 melanoma
  GI50: > 10 µM
  TGI: > 10 µM
SK-MEL-5 melanoma
  GI50: > 10 µM
  TGI: > 10 µM
SK-OV-3 ovarian
  GI50: > 10 µM
  TGI: > 10 µM
SN12C renal
  GI50: > 10 µM
  TGI: > 10 µM
SNB-19 CNS
  GI50: > 10 µM
  TGI: > 10 µM
SNB-75 CNS
  GI50: > 10 µM
  TGI: > 10 µM
SR leukemia
  GI50: 5.7 µM
  TGI: > 10 µM
SW-620 colon
  GI50: > 10 µM
  TGI: > 10 µM
T-47D breast
  GI50: > 10 µM
  TGI: > 10 µM
TK-10 renal
  GI50: > 10 µM
  TGI: > 10 µM
U251 CNS
  GI50: > 10 µM
  TGI: > 10 µM
UACC-257 melanoma
  GI50: > 10 µM
  TGI: > 10 µM
UACC-62 melanoma
  GI50: > 10 µM
  TGI: > 10 µM
UO-31 renal
  GI50: > 10 µM
  TGI: > 10 µM
